Measured values taken from ChEMBL document CHEMBL5518238, “Structure-Activity Relationship (SAR) Studies of Novel Monovalent AR/AR-V7 Dual Degraders with Potent Efficacy against Advanced Prostate Cancer” (J Med Chem, 2024).
The source made the active and inactive calls. The rule behind the calls is not given here.

Key:
[1] = MRT (0 to t) in Sprague-Dawley rat at 5 mg/kg, iv by LC-MS/MS analysis; assay type: ADME, organism-based; conditions: in vivo
[2] = molecular target: T1, Androgen receptor (Homo sapiens) (UniProt P10275); assay: Induction of AR degradation in human 22Rv1 cells at 10 uM incubated for 24 hrs in presence of MDM2 by Western blot analysis; assay type: cell-based
T1 sequence (whole entry): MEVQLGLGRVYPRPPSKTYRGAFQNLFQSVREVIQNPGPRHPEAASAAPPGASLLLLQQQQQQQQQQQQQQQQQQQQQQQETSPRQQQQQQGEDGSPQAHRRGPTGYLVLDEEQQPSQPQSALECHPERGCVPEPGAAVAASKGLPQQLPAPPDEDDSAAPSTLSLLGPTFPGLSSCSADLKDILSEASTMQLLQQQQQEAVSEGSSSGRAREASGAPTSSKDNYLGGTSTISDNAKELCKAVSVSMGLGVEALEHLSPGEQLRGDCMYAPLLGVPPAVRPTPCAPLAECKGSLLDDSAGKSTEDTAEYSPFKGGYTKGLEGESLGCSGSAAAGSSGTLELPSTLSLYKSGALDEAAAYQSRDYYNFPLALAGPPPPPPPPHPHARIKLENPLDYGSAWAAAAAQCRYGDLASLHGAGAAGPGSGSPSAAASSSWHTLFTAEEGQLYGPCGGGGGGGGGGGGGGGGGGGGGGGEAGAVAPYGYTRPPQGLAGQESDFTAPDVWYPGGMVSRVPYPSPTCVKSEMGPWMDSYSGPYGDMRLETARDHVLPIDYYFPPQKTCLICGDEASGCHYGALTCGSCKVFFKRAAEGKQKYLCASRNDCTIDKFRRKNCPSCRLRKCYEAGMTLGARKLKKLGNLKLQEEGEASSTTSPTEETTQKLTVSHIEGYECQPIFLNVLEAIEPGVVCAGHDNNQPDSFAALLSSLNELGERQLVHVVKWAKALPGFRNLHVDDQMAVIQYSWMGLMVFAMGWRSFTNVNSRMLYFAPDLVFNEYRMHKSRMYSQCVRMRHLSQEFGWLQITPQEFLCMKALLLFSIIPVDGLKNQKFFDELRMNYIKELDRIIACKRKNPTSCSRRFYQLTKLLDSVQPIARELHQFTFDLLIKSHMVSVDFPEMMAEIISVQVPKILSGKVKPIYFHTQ

[3] = Antiproliferative activity against human L02 cells assessed as inhibition of cell growth incubated for 48 hrs by CCK-8 assay; assay type: toxicity, cell-based
CWR22R [4] = assay: Downregulation of SLC26A2 mRNA expression in human 22Rv1 cells at 10 uM incubated for 24 hrs by qRT-PCR analysis; assay type: functional, cell-based
LNCaP = assay: Antiproliferative activity against human LNCaP cells assessed as inhibition of cell growth incubated for 48 hrs by CCK-8 assay; assay type: functional, cell-based
[5] = MRT (0 to infinity) in Sprague-Dawley rat at 5 mg/kg, iv by LC-MS/MS analysis; assay type: ADME, organism-based; conditions: in vivo
[6] = Half life in Sprague-Dawley rat at 50 mg/kg, po by LC-MS/MS analysis; assay type: ADME, organism-based; conditions: in vivo
CWR22R [7] = assay: Downregulation of KLK3 mRNA expression in human 22Rv1 cells at 10 uM incubated for 24 hrs by qRT-PCR analysis; assay type: functional, cell-based
CWR22R [8] = assay: Induction of apoptosis in human 22Rv1 cells assessed as effect on Caspase-3 level incubated for 24 hrs by Western blot analysis; assay type: functional, cell-based; conditions: dose <= 10.0 µM
CWR22R [9] = assay: Antitumor activity against human 22Rv1 cells xenografted in NSG mouse assessed as change in tumor volume at 30 mg/kg, IG administered once daily for 21 days; assay type: functional, organism-based; conditions: time 21.0 day
CWR22R [10] = assay: Induction of cell cycle arrest in human 22Rv1 cells assessed as accumulation of cells at G0/G1 phase at 1 uM incubated for 24 hrs by DAPI staining based flow cytometric analysis (reference value: 26.3 %); assay type: functional
CWR22R [11] = assay: Antitumor activity against human 22Rv1 cells xenografted in NSG mouse assessed as decrease in AR-V7 level in tumor at 10 mg/kg, IG administered once daily for 3 days by […] based analysis; assay type: functional, organism-based; conditions: time 3.0 day
CWR22R [12] = assay: Drug localization in nucleus of human 22Rv1 cells at 5 uM incubated for 24 hrs by DAPI staining based immunofluorescence analysis; assay type: functional, cell-based
CWR22R [13] = assay: Induction of cell cycle arrest in human 22Rv1 cells assessed as accumulation of cells at G0/G1 phase at 5 uM incubated for 24 hrs by DAPI staining based flow cytometric analysis (reference value: 26.3 %); assay type: functional
[14] = Toxicity in NSG mouse xenografted with human 22Rv1 cells assessed as spleen damage t at 30 mg/kg, IG administered once daily for 21 days by H and E staining based analysis; assay type: organism-based, CWR22R; conditions: in vivo, po, 504 h, time 21 day
CWR22R [15] = assay: Downregulation of STEAP4 mRNA expression in human 22Rv1 cells at 10 uM incubated for 24 hrs by qRT-PCR analysis; assay type: functional, cell-based
CWR22R [16] = assay: Downregulation of FKBP5 mRNA expression in human 22Rv1 cells at 10 uM incubated for 24 hrs by qRT-PCR analysis; assay type: functional, cell-based
[17] = Toxicity in NSG mouse xenografted with human 22Rv1 cells assessed as heart damage t at 30 mg/kg, IG administered once daily for 21 days by H and E staining based analysis; assay type: organism-based, CWR22R; conditions: in vivo, po, 504 h, time 21 day
[18] = molecular target: T1, Androgen receptor (Homo sapiens); assay: Induction of AR degradation in human LNCaP cells at 5 uM by Western blot analysis; assay type: cell-based; conditions: time <= 24.0 hrs, TDE = time-dependent effect
CWR22R [19] = assay: Downregulation of BARD1 mRNA expression in human 22Rv1 cells at 10 uM incubated for 24 hrs by qRT-PCR analysis; assay type: functional, cell-based
CWR22R [20] = assay: Downregulation of AR-V7 expression in human 22Rv1 cells at 5 uM incubated for 24 hrs by Western blot analysis; assay type: functional, cell-based
[21] = molecular target: T1, Androgen receptor (Homo sapiens); assay: Binding affinity to AR (unknown origin) assessed as thermal stabilization at 10 uM incubated for 2 hrs by CETSA analysis; assay type: cell-based; conditions: 22Rv1
CWR22R [22] = assay: Induction of apoptosis in human 22Rv1 cells assessed as effect on Bcl-2 level incubated for 24 hrs by Western blot analysis; assay type: functional, cell-based; conditions: dose <= 10.0 µM
[23] = AUC (0 to infinity) in Sprague-Dawley rat at 5 mg/kg, iv by LC-MS/MS analysis; assay type: ADME, organism-based; conditions: in vivo
[24] = tested on: Androgen receptor (Homo sapiens), P10275 [UNDEFINED MUTATION]; assay: Binding affinity to AR-V7 (unknwon origin) assessed as thermal stabilization at 10 uM incubated for 2 hrs by CETSA analysis; assay type: cell-based; conditions: 22Rv1
[25] = AUC (0 to infinity) in Sprague-Dawley rat at 50 mg/kg, po by LC-MS/MS analysis; assay type: ADME, organism-based; conditions: in vivo
CWR22R [26] = assay: Antitumor activity against human 22Rv1 cells xenografted in NSG mouse assessed as tumor growth inhibition at 30 mg/kg, IG administered once daily for 21 days; assay type: functional; conditions: 22Rv1, po, 504 h, time 21 day, read-out: TGI
CWR22R [27] = assay: Induction of apoptosis in human 22Rv1 cells at 1 uM incubated for 24 hrs by Annexin V-FITC/PI staining based flow cytometric analysis (reference value: 3.70 %); assay type: functional

CC1(C)C(=O)N(c2ccc(C#N)c(C(F)(F)F)c2)C(=O)N1CCNc1ccc(F)c2ncccc12
MRT last [1]: 1.3 h | Activity [2]: Active | IC50 at 48 h [3]: > 100000 nM | Activity (CWR22R [4]): Active | IC50 (LNCaP): 1400 nM | MRT [5]: 4.1 h | half-life [6]: 2.2 h | Activity (CWR22R [7]): Active | Activity (CWR22R [8]): Dose-Dependent Effect | Activity (CWR22R [9]): Active | Activity (CWR22R [10]): 41.5% | Activity (CWR22R [11]): Active | Activity (CWR22R [12]): Active | Activity (CWR22R [13]): 50.6% | Activity [14]: Non-Toxic | Activity (CWR22R [15]): Active | Activity (CWR22R [16]): Active | Activity [17]: Non-Toxic | Activity [18]: Tde | Activity (CWR22R [19]): Active | Activity (CWR22R [20]): Active | Activity [21]: inactive | Activity (CWR22R [22]): Dose-Dependent Effect | AUC(0-inf) [23]: 2920 ng·h/mL | Activity [24]: inactive | AUC(0-inf) [25]: 3470 ng·h/mL | inhibition in vivo at 30 mg/kg (CWR22R [26]): 63% | Activity (CWR22R [27]): 11.94%
